Reference: patent US20220281848A1, “PYRAZOLE-SUBSTITUTED PYRROLIDINONES AS HERBICIDES” (FMC Corporation, priority 2019, published 2022)

Test system: plants
Assay: Test D pre-emergence, other plants of Tables D1 and D3
Format: in vivo
Details: pre-emergence, 100=total damage, 0=no damage; for ALOMY damage rating / AVEFA damage rating / BEAVA damage rating / BROTE damage rating / BRSNN damage rating / CHEAL damage rating / GALAP damage rating / HORVW damage rating / KCHSC damage rating / LOLPE damage rating / POAAN damage rating / SINAR damage rating / STEME damage rating / VERPE damage rating: 20 DAA
How it was run: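 Seeds treated with herbicide safener; sown in soil; glasshouse, 16 h light, 65% humidity. Sprayed day 1 (pre) or ~day 12 (post). Spray in 0.2% v/v adjuvant. Scored 0–100 damage: 20 DAA pre, 15 d post.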

CN1CC(c2cc(Cl)n(C)n2)C(C(=O)Nc2ccc(F)c(F)c2F)C1=O (racemic) [Compound 31]
30: VERPE damage rating (Rates 250)
50: VERPE damage rating (Rates 500)
20: CHEAL damage rating (Rates 500) | damage to plant, HORVW (rate 500, 20 DAA) | damage to plant, SINAR (rate 500, 20 DAA)
0: ALOMY damage rating (Rates 15) | ALOMY damage rating (Rates 30) | AVEFA damage rating (Rates 15) | AVEFA damage rating (Rates 30) | BEAVA damage rating (Rates 15) | BEAVA damage rating (Rates 30) | BROTE damage rating (Rates 15) | BROTE damage rating (Rates 30) | BRSNN damage rating (Rates 15) | BRSNN damage rating (Rates 30) | CHEAL damage rating (Rates 15) | CHEAL damage rating (Rates 30) | CHEAL damage rating (Rates 60) | CHEAL damage rating (Rates 130) | CHEAL damage rating (Rates 250) | GALAP damage rating (Rates 15) | GALAP damage rating (Rates 30) | GALAP damage rating (Rates 60) | GALAP damage rating (Rates 130) | GALAP damage rating (Rates 250) | GALAP damage rating (Rates 500) | HORVW damage rating (Rates 15) | HORVW damage rating (Rates 30) | KCHSC damage rating (Rates 15) | KCHSC damage rating (Rates 30) | KCHSC damage rating (Rates 60) | KCHSC damage rating (Rates 130) | KCHSC damage rating (Rates 250) | KCHSC damage rating (Rates 500) | LOLPE damage rating (Rates 15) | LOLPE damage rating (Rates 30) | LOLPE damage rating (Rates 60) | LOLPE damage rating (Rates 130) | LOLPE damage rating (Rates 250) | LOLPE damage rating (Rates 500) | POAAN damage rating (Rates 15) | POAAN damage rating (Rates 30) | POAAN damage rating (Rates 60) | POAAN damage rating (Rates 130) | POAAN damage rating (Rates 250) | SINAR damage rating (Rates 15) | SINAR damage rating (Rates 30) | STEME damage rating (Rates 15) | STEME damage rating (Rates 30) | STEME damage rating (Rates 60) | STEME damage rating (Rates 130) | STEME damage rating (Rates 250) | VERPE damage rating (Rates 15) | VERPE damage rating (Rates 30) | VERPE damage rating (Rates 60) | VERPE damage rating (Rates 130) | damage to plant, ALOMY (rate 60, 20 DAA) | damage to plant, AVEFA (rate 60, 20 DAA) | damage to plant, BEAVA (rate 60, 20 DAA) | damage to plant, BROTE (rate 60, 20 DAA) | damage to plant, BRSNN (rate 60, 20 DAA) | damage to plant, HORVW (rate 60, 20 DAA) | damage to plant, SINAR (rate 60, 20 DAA) | damage to plant, ALOMY (rate 130, 20 DAA) | damage to plant, AVEFA (rate 130, 20 DAA) | damage to plant, BEAVA (rate 130, 20 DAA) | damage to plant, BROTE (rate 130, 20 DAA) | damage to plant, BRSNN (rate 130, 20 DAA) | damage to plant, HORVW (rate 130, 20 DAA) | damage to plant, SINAR (rate 130, 20 DAA) | damage to plant, ALOMY (rate 250, 20 DAA) | damage to plant, AVEFA (rate 250, 20 DAA) | damage to plant, BEAVA (rate 250, 20 DAA) | damage to plant, BROTE (rate 250, 20 DAA) | damage to plant, BRSNN (rate 250, 20 DAA) | damage to plant, HORVW (rate 250, 20 DAA) | damage to plant, SINAR (rate 250, 20 DAA) | damage to plant, ALOMY (rate 500, 20 DAA) | damage to plant, BEAVA (rate 500, 20 DAA) | damage to plant, BRSNN (rate 500, 20 DAA)
10: POAAN damage rating (Rates 500) | STEME damage rating (Rates 500) | damage to plant, AVEFA (rate 500, 20 DAA) | damage to plant, BROTE (rate 500, 20 DAA)
